Results: patent publication US20250129430A1, “HIGH ATP-AFFINITY PROTEIN AS THERAPEUTIC TARGET FOR INTRACTABLE CANCER MOLECULAR SUBTYPES AND INHIBITOR THEREOF” (VeraVerse Co., Ltd., priority 2021, published 2025)

Legend:
Format in all cases: cell-based, human
AGS = experiment: Cell viability drug screen, 12-point dose-response AUC; conditions: 72 hours
Method in brief: (§1)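 AUC comes from 12-point half-log dose–response curves, normalized to DMSO-treated cells and integrated trapezoidally, repeats averaged. Luminescent viability read after 72 h compound exposure at 37 °C; cells plated 5×10^3 per well 24 h before dosing.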

Hs746T = experiment: as above; conditions: 72 hours
Method in brief: (§2)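 Viability: luminescence (Glo kit, 15 min RT), normalized to 0.5% DMSO vehicle. Dosing: half-log, 12 concentrations, 72 h. Cells: 5×10^3/well, treated 24 h after plating. Value: trapezoidal AUC, mean of repeats.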

KATO3 = experiment: as above; conditions: KATO3 cells, 72 hours
Method in brief: as §2

MKN1 = experiment: as above; conditions: MKN1 cells, 72 hours
Method in brief: as §2

MKN28 = experiment: as above; conditions: MKN28 cells, 72 hours
Method in brief: as §2

MKN45 = experiment: as above; conditions: 72 hours
Method in brief: as §1

MKN74 = experiment: as above; conditions: MKN74 cells, 72 hours
Method in brief: as §1

NCC19 = experiment: as above; conditions: NCC19 cells, 72 hours
Method in brief: as §2

NCC20 = experiment: as above; conditions: NCC20 cells, 72 hours
Method in brief: as §2

NCC24 = experiment: as above; conditions: NCC24 cells, 72 hours
Method in brief: as §2

NCC59 = experiment: as above; conditions: NCC59 cells, 72 hours
Method in brief: as §2

NCI_N87 = experiment: as above; conditions: NCI_N87 cells, 72 hours
Method in brief: as §2

OCUM1 = experiment: as above; conditions: OCUM1 cells, 72 hours
Method in brief: as §2

SK4 = experiment: as above; conditions: 72 hours
Method in brief: as §2

SNU16 = experiment: as above; conditions: SNU16 cells, 72 hours
Method in brief: as §2

SNU1750 = experiment: as above; conditions: 72 hours
Method in brief: as §2

SNU1967 = experiment: as above; conditions: SNU1967 cells, 72 hours
Method in brief: as §2

SNU1 = experiment: as above; conditions: SNU1 cells, 72 hours
Method in brief: as §2

SNU216 = experiment: as above; conditions: 72 hours
Method in brief: as §1

SNU484 = experiment: as above; conditions: 72 hours
Method in brief: as §2

SNU601 = experiment: as above; conditions: SNU601 cells, 72 hours
Method in brief: as §2

SNU620 = experiment: as above; conditions: SNU620 cells, 72 hours
Method in brief: as §2

SNU638 = experiment: as above; conditions: SNU638 cells, 72 hours
Method in brief: as §2

SNU668 = experiment: as above; conditions: 72 hours
Method in brief: as §2

SNU719 = experiment: as above; conditions: SNU719 cells, 72 hours
Method in brief: as §1

YCC11 = experiment: as above; conditions: 72 hours
Method in brief: as §2

YCC2 = experiment: as above; conditions: YCC2 cells, 72 hours
Method in brief: as §2

YCC3 = experiment: as above; conditions: YCC3 cells, 72 hours
Method in brief: as §2

FU97 = experiment: as above; set-up: Average Area Under the Viability Curve (AUC), AUC norm value: scale not given here; conditions: FU97 cells, 72 hours
Method in brief: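 Trapezoidal AUC of a 12-point, DMSO-normalized dose-response curve. Luminescent viability was measured after 72 h of exposure at 37° C to half-log serial dilutions (0.5% DMSO control), dosed 24 h after plating FU97 cells at 5×10^3 per well.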

[1] = system: non-SEM-type gastric cancer cell line; experiment: Cell viability drug screen, AUC summary over non-SEM-type lines; conditions: in the non-SEM-type gastric cancer cell line

COC(=O)Nc1nc2ccc(Sc3ccccc3)cc2[nH]1 [Fenbendazole]
area under the viability curve (AUC), normalized (AGS; AGS cells, 12-point dose-response): −1.16 | area under the viability curve (AUC), normalized (Hs746T; Hs746T cells, 12-point dose-response): 0.5728 | area under the viability curve (AUC), normalized (KATO3; 12-point dose-response): 2.344 | area under the viability curve (AUC), normalized (MKN1; 12-point dose-response): −0.0568 | area under the viability curve (AUC), normalized (MKN28; 12-point dose-response): −0.7877 | area under the viability curve (AUC), normalized (MKN45; MKN45 cells, 12-point dose-response): 1.407 | area under the viability curve (AUC), normalized (MKN74; 12-point dose-response): −0.2802 | area under the viability curve (AUC), normalized (NCC19; 12-point dose-response): −0.2779 | area under the viability curve (AUC), normalized (NCC20; 12-point dose-response): −0.5211 | area under the viability curve (AUC), normalized (NCC24; 12-point dose-response): −0.8488 | area under the viability curve (AUC), normalized (NCC59; 12-point dose-response): 1.9513 | area under the viability curve (AUC), normalized (NCI_N87; 12-point dose-response): −1.124 | area under the viability curve (AUC), normalized (OCUM1; 12-point dose-response): 1.283 | area under the viability curve (AUC), normalized (SK4; SK4 cells, 12-point dose-response): −0.2953 | area under the viability curve (AUC), normalized (SNU16; 12-point dose-response): 1.2297 | area under the viability curve (AUC), normalized (SNU1750; SNU1750 cells, 12-point dose-response): 0.2596 | area under the viability curve (AUC), normalized (SNU1967; 12-point dose-response): 0.184 | area under the viability curve (AUC), normalized (SNU1; 12-point dose-response): 0.1629 | area under the viability curve (AUC), normalized (SNU216; SNU216 cells, 12-point dose-response): 1.005 | area under the viability curve (AUC), normalized (SNU484; SNU484 cells, 12-point dose-response): −0.08111 | area under the viability curve (AUC), normalized (SNU601; 12-point dose-response): 0.599 | area under the viability curve (AUC), normalized (SNU620; 12-point dose-response): −1.425 | area under the viability curve (AUC), normalized (SNU638; 12-point dose-response): −0.3689 | area under the viability curve (AUC), normalized (SNU668; SNU668 cells, 12-point dose-response): 0 | area under the viability curve (AUC), normalized (SNU719; 12-point dose-response): 3.382 | area under the viability curve (AUC), normalized (YCC11; YCC11 cells, 12-point dose-response): −0.7305 | area under the viability curve (AUC), normalized (YCC2; 12-point dose-response): 0.5695 | area under the viability curve (AUC), normalized (YCC3; 12-point dose-response): 1.376 | area under the viability curve (AUC), normalized (FU97; 12-point dose-response): −1.854 | AUC value [1]: high

CCCCCCCCCCCCCCCC[N+](C)(C)CCN(Cc1ccc(OC)cc1)c1ncccn1 [Thonzonium Bromide]
Average Area Under the Viability Curve (AUC), AUC norm value (AGS; AGS cells (non-SEM subtype)): −0.4105 | Average Area Under the Viability Curve (AUC), AUC norm value (Hs746T; Hs746T cells (SEM subtype)): 0 | Average Area Under the Viability Curve (AUC), AUC norm value (KATO3): −0.127 | Average Area Under the Viability Curve (AUC), AUC norm value (MKN1): −0.2414 | Average Area Under the Viability Curve (AUC), AUC norm value (MKN28): 0.07021 | Average Area Under the Viability Curve (AUC), AUC norm value (MKN45; MKN45 cells (non-SEM subtype)): 0.1213 | Average Area Under the Viability Curve (AUC), AUC norm value (MKN74): −0.9967 | Average Area Under the Viability Curve (AUC), AUC norm value (NCC19): 0.2995 | Average Area Under the Viability Curve (AUC), AUC norm value (NCC20): −0.6042 | Average Area Under the Viability Curve (AUC), AUC norm value (NCC24): −0.2465 | Average Area Under the Viability Curve (AUC), AUC norm value (NCC59): 0.6096 | Average Area Under the Viability Curve (AUC), AUC norm value (NCI_N87): 0.415 | Average Area Under the Viability Curve (AUC), AUC norm value (OCUM1): 0.2209 | Average Area Under the Viability Curve (AUC), AUC norm value (SK4; SK4 cells (SEM subtype)): −1.033 | Average Area Under the Viability Curve (AUC), AUC norm value (SNU16): −0.9128 | Average Area Under the Viability Curve (AUC), AUC norm value (SNU1750; SNU1750 cells (SEM subtype)): 0.06729 | Average Area Under the Viability Curve (AUC), AUC norm value (SNU1967): 0.01501 | Average Area Under the Viability Curve (AUC), AUC norm value (SNU1): 1.478 | Average Area Under the Viability Curve (AUC), AUC norm value (SNU216; SNU216 cells (non-SEM subtype)): 0.2737 | Average Area Under the Viability Curve (AUC), AUC norm value (SNU484; SNU484 cells (SEM subtype)): −0.9082 | Average Area Under the Viability Curve (AUC), AUC norm value (SNU601): 2.228 | Average Area Under the Viability Curve (AUC), AUC norm value (SNU620): −0.2404 | Average Area Under the Viability Curve (AUC), AUC norm value (SNU638): −0.4973 | Average Area Under the Viability Curve (AUC), AUC norm value (SNU668; SNU668 cells (SEM subtype)): 0.3151 | Average Area Under the Viability Curve (AUC), AUC norm value (SNU719): 1.9 | Average Area Under the Viability Curve (AUC), AUC norm value (YCC11; YCC11 cells (SEM subtype)): −0.8304 | Average Area Under the Viability Curve (AUC), AUC norm value (YCC2): −0.4255 | Average Area Under the Viability Curve (AUC), AUC norm value (YCC3): 0.6163 | Average Area Under the Viability Curve (AUC), AUC norm value (FU97): −0.03008 | AUC value [1]: high
